Data as given in patent publication US9868757B2, “5-β, 14-β-androstane derivatives useful for the treatment of proteinuria, glomerulosclerosis and renal failure” (SIGMA-TAU INDUSTRIE FARMACEUTICHE RIUNITE S.p.A., priority 2009, dated 2018).
Several values for one entry are separate records, joined by “and”; a condition that tells them apart may be missing. Equal entries are not always repeated.

Key:
[1] = system: rats chronically infused with ouabain (OS rats); assay: Systolic blood pressure by tail-cuff plethysmography in ouabain-infused (OS) rats; format: in vivo, rat
Description: (§1) To test the activity of the compound of the invention for the prevention of proteinuria and loss of renal glomerular proteins, rats chronically infused with ouabain (OS rats) or saline (Control rats) were utilized.
(§2) Two groups of 2-month-old OS rats (n=8 each) were orally treated by gavage with vehicle (Methocel 0.5%) or Rostafuroxin (100 μg/kg) for 8 weeks. One group of saline infused rats was used as control. After this period, systolic blood pressure and urinary protein excretion was measured in the three groups. The animals of the three groups were then sacrificed for nephrin quantification from renal cortex microsomes by Western blotting.
Three week-old male Sprague-Dawley rats (Harlan, Ind.), weighing 100-110 g, were subcutaneously implanted with osmotic mini-pumps, releasing either 15 μg/kg/day of ouabain (OS rats, n=16) for 14 weeks or sterile saline (CS rats, n=8) (Ferrari P. et al. J. Pharmacol Exp. Ther. 1998; 285: 83-94). At the 6th week of ouabain infusion, OS rats were randomly assigned to two groups (n=8 each): the first (OS treated) received Rostafuroxin orally at 100 μg/kg/day, suspended in 0.5% w/v Methocel, and the second group (controls) only vehicle. Systolic blood pressure (SBP) and heart rate (HR) were measured weekly in conscious rats by tail-cuff plethysmography (BP recorder, U. Basile, Italy).

Podocytes from NB rats = assay: Podocyte protein quantification by Western blotting in cultured podocytes from NB rats; format: cell-based, rat
From the text: To test the activity of the compound of the invention for the prevention of loss of podocyte proteins, congenic NB rats carrying the beta adducin mutation (Tripodi G. et at Effect of Addl gene transfer on blood pressure in reciprocal congenic strains of Milan rats. BBRC 2004; 324: 562-568) were used. Said NB rats are non-hypertensive rats and are available at Prassis Research Institute, Sigma-tau, Italy.
NB rats of 7 to 10 days of age were used for podocyte isolation and culture. Podocytes from NB rats were incubated for 5 days without (NB control, n=4) and with Rostafuroxin at 10^−9M (NB n=5). Podocyte proteins were quantified at the end of the 5 days of incubation by Western blotting. The quantification by Western blot was replicated two to three times for each podocyte marker. Tables IA and IB show the final number of podocyte samples analyzed for each condition, as mean values of the replicates (NB control, n=4; NB+Rostafuroxin, n=5). The densitometric analysis was quantified as optical density, in arbitrary units.
Glomeruli were isolated from NB kidneys by sieving and further manually purification. Glomeruli were then seeded in culture flasks (Corning, Sigma-Aldrich, Milan, Italy), pre-coated with collagen type IV (Sigma-Aldrich) at 37° C. in 5% CO2 atmosphere. On days 4 to 5, podocyte growth started and, by day 8, glomeruli were detached using trypsin-EDTA. […] Podocyte protein quantification (10 μg protein/lane) was performed by Western blotting technique by using specific antibodies against nephrin, podocin, ZO-1, adducin, synaptopodin and actin.

[2] = system: rats chronically infused with ouabain (OS rats); assay: Nephrin quantification from renal cortex microsomes of OS rats by Western blotting; format: in vivo, rat
Description: as §1, §2
(§3) Three week-old male Sprague-Dawley rats (Harlan, Ind.), weighing 100-110 g, were subcutaneously implanted with osmotic mini-pumps, releasing either 15 μg/kg/day of ouabain (OS rats, n=16) for 14 weeks or sterile saline (CS rats, n=8) (Ferrari P. et al. J. Pharmacol Exp. Ther. 1998; 285: 83-94). […] Systolic blood pressure (SBP) and heart rate (HR) were measured weekly in conscious rats by tail-cuff plethysmography (BP recorder, U. Basile, Italy).
(§4) Urinary parameters were measured in conscious OS and control rats at the 12th week of treatment. […] After centrifugation (4500 rpm for 20 min; Varifuge 3.2 RS, Haereus Instruments, AHSI, Milan, Italy), rat urines were analyzed for the urinary volume (ml), quantified by weighing the urinary reservoir on a precision Mettler balance; urinary pH (pHM83, Radiometer, Copenhagen) and total urinary protein excretion (mg/24 h), measured with a standard total protein Kit (Sentinel Diagnostics, Milan, Italy). The animals of the three groups were then sacrificed, renal cortical microsomes were prepared from each rat and nephrin, the key protein of the slit diaphragm membrane, was quantified by Western blotting. […] Nephrin quantification is expressed as optical density, arbitrary units.

[3] = system: rats chronically infused with ouabain (OS rats); assay: Total urinary protein excretion in ouabain-infused (OS) rats; format: in vivo, rat
Description: as §1, §2, §3, §4

[4] = OS rats orally treated for 8 weeks with Rostafuroxin 100 μg/kg/day, FIG. 6
[5] = NB + Rostafuroxin 10^-9M vs NB controls
[6] = NB podocytes, 5 days with Rostafuroxin 10^-9M, individual samples/replicates
[7] = NB podocytes, 5 days with Rostafuroxin 10^-9M, mean ± sem

Compound: C[C@]12CC[C@H](O)C[C@H]1CC[C@@H]1[C@@H]2CC[C@]2(C)[C@@](O)(c3ccoc3)CC[C@]12O [Rostafuroxin]
- systolic blood pressure (SBP) (in words) [1, 4]: significantly reduced
- Systolic blood Pressure ([1]; OS rats, 100 μg/kg os Rostafuroxin for 8 weeks, individual rats): 155 mmHg (3×) and 145 mmHg (2×) and 150 mmHg (2×) and 135 mmHg
- Systolic blood Pressure, mean ± sem ([1]; OS rats, 100 μg/kg os Rostafuroxin for 8 weeks, n = 8): 148.8 ± 2.5, n = 8 mmHg
- Actin, % vs. Ctrl. (Podocytes from NB rats; [5]): ns
- Nephrin, % vs. Ctrl. (Podocytes from NB rats; [5]): +34%
- Podocin, % vs. Ctrl. (Podocytes from NB rats; [5]): +60%
- Synaptopodin, % vs. Ctrl. (Podocytes from NB rats; [5]): +143%
- ZO-1, % vs. Ctrl. (Podocytes from NB rats; [5]): +86%
- α-Adducin, % vs. Ctrl. (Podocytes from NB rats; [5]): +95%
- amounts of Nephrin, ZO-1, Podocin, α-Adducin and Synaptopodin (in words) (Podocytes from NB rats; NB podocytes cultured 5 days with 10^-9M Rostafuroxin, FIG. 5): increased
- Synaptopodin, optical density (Podocytes from NB rats; NB podocytes, 5 days with Rostafuroxin 10^-9M, individual samples): 2.7 arbitrary units and 2.51 arbitrary units and 4.29 arbitrary units and 1.43 arbitrary units and 2.56 arbitrary units
- Actin, optical density (Podocytes from NB rats; [6]): 130.5 arbitrary units and 115 arbitrary units and 87.5 arbitrary units and 140.4 arbitrary units and 111 arbitrary units and 98 arbitrary units and 98.2 arbitrary units and 81.2 arbitrary units and 86.2 arbitrary units and 101.2 arbitrary units and 101 arbitrary units and 144.2 arbitrary units and 87.7 arbitrary units and 108 arbitrary units and 103 arbitrary units and 91.6 arbitrary units
- Nephrin optical density (Podocytes from NB rats; [6]): 24.53 arbitrary units and 27.06 arbitrary units
- Podocin, optical density (Podocytes from NB rats; [6]): 23.4 arbitrary units and 49.06 arbitrary units and 13.3 arbitrary units and 19.07 arbitrary units and 16.81 arbitrary units and 18.63 arbitrary units and 21.42 arbitrary units and 18.78 arbitrary units and 23.84 arbitrary units and 36.51 arbitrary units and 21.23 arbitrary units and 23.65 arbitrary units and 27.62 arbitrary units
- ZO-1, optical density (Podocytes from NB rats; [6]): 6.38 arbitrary units and 7.5 arbitrary units and 8.73 arbitrary units and 13.33 arbitrary units and 15.79 arbitrary units and 11.67 arbitrary units and 16.05 arbitrary units and 19.98 arbitrary units and 12.78 arbitrary units and 19.06 arbitrary units and 20.13 arbitrary units and 17.3 arbitrary units and 17.8 arbitrary units
- α-Adducin, optical density (Podocytes from NB rats; [6]): 22.23 arbitrary units and 6.06 arbitrary units and 5.70 arbitrary units and 6.77 arbitrary units and 8.06 arbitrary units and 7.53 arbitrary units and 9.33 arbitrary units and 7.07 arbitrary units
- Nephrin, optical density, mean (Podocytes from NB rats; NB podocytes, 5 days with Rostafuroxin 10^-9M, mean): 25.8 arbitrary units
- Actin, optical density, mean ± sem (Podocytes from NB rats; [7]): 105.3 ± 4.75 arbitrary units
- Podocin, optical density, mean ± sem (Podocytes from NB rats; [7]): 24.13 ± 2.6 arbitrary units
- Synaptopodin, optical density, mean ± sem (Podocytes from NB rats; [7]): 2.70 ± 0.45 arbitrary units
- ZO-1, optical density, mean ± sem (Podocytes from NB rats; [7]): 14.36 ± 1.3 arbitrary units
- α-Adducin, optical density, mean ± sem (Podocytes from NB rats; [7]): 9.09 ± 1.9 arbitrary units
- Nephrin expression from renal cortex (in words) [2, 4]: increased
- Nephrin optical density ([2]; OS rats, 100 μg/kg os Rostafuroxin for 8 weeks, renal cortex microsomes, individual rats): 51.4 arbitrary units and 50.8 arbitrary units and 76.1 arbitrary units and 57.4 arbitrary units and 48.8 arbitrary units and 53.8 arbitrary units and 64.7 arbitrary units and 54.8 arbitrary units
- Nephrin optical density, mean ± sem ([2]; OS rats, 100 μg/kg os Rostafuroxin for 8 weeks, renal cortex microsomes, n = 8): 57.3 ± 3.1, n = 8 arbitrary units
- urinary protein excretion (in words) [3, 4]: significantly reduced
- Proteinuria ([3]; OS rats, 100 μg/kg os Rostafuroxin, 24-hours urine, individual rats): 55.34 mg/24 h and 29.02 mg/24 h and 39.7 mg/24 h and 40.68 mg/24 h and 20.85 mg/24 h and 48.88 mg/24 h and 53.07 mg/24 h and 20.14 mg/24 h
- Proteinuria, mean ± sem ([3]; OS rats, 100 μg/kg os Rostafuroxin, 24-hours urine, n = 8): 38.5 ± 4.9, n = 8 mg/24 h
